Reference: ChEMBL document CHEMBL3396972, “Synthesis and biological evaluation of DAPY-DPEs hybrids as non-nucleoside inhibitors of HIV-1 reverse transcriptase” (Bioorg Med Chem, 2015)
pEC50, pIC50: −log10 of the molar value.

Experiments:
[1] = system: Human immunodeficiency virus 2; assay: Antiviral activity against wild type HIV-2 ROD infected in human MT4 cells assessed as reduction of virus-induced cytopathic effect after 5 days by MTT assay; format: functional, organism-based; details: Human immunodeficiency virus 2, ISOLATE ROD, MT4, 120 h
[2] = system: Human immunodeficiency virus 1; assay: Antiviral activity against wild type HIV-1 3B infected in human MT4 cells assessed as reduction of virus-induced cytopathic effect after 5 days by MTT assay; format: functional, organism-based; details: Human immunodeficiency virus 1, 3B, MT4, 120 h
[3] = Cytotoxicity against human MT4 cells after 5 days MTT assay; format: cell-based
[4] = system: Human immunodeficiency virus 1; assay: Antiviral activity against HIV-1 RES056 harboring reverse transcriptase K103N/Y181C double mutant infected in human MT4 cells assessed as reduction of virus-induced cytopathic effect after 5 days by MTT assay; format: functional, organism-based; details: Human immunodeficiency virus 1, RES056, MT4, 120 h
[5] = Selectivity index, ratio of CC50 for human MT4 cells to EC50 for wild type HIV-1 3B infected in human MT4 cells; format: toxicity, cell-based; details: read-out: Ratio CC50/EC50
[6] = biological target: Human immunodeficiency virus type 1 reverse transcriptase (Human immunodeficiency virus 1, UniProt Q72547); assay: Inhibition of wild type HIV1 p66/p51 reverse transcriptase by spectrofluorometry

For `N#Cc1ccc(Nc2nccc(OCC(=O)Nc3ccc(F)cc3)n2)cc1`, the pEC50 [1] was < 3.46, the pEC50 [2] was < 3.46 and the CC50 at 120 h [3] was > 344 µM. For the same compound, the pEC50 [4] was < 3.46.
Work on `N#Cc1ccc(Nc2nccc(OCC(=O)Nc3ccc(Cl)cc3)n2)cc1` yielded a pEC50 [1] of 3.79, a pEC50 [2] of 4.72 and a selectivity ratio [5] of 8. For the same compound, the pIC50 [6] was 4.57, the CC50 at 120 h [3] was 162 µM and the pEC50 [4] was < 3.79.
With `N#Cc1ccc(Nc2nccc(OCC(=O)Nc3cccc(Cl)c3)n2)cc1` the pEC50 [1] was < 3.48, the pEC50 [2] was 7.46 and the selectivity ratio [5] was > 9340. The pIC50 [6] was 6.92, the CC50 at 120 h [3] was > 329 µM and the pEC50 [4] was < 3.48.
In the case of `N#Cc1ccc(Nc2nccc(OCC(=O)Nc3ccc([N+](=O)[O-])cc3)n2)cc1`, the pEC50 [1] was < 3.49, the pEC50 [2] was < 3.49 and the CC50 at 120 h [3] was > 320 µM. For the same compound, the pEC50 [4] was < 3.49.
In the case of `N#Cc1ccc(NC(=O)COc2ccnc(Nc3ccc(C#N)cc3)n2)cc1`, the pEC50 [1] was < 3.47, the pEC50 [2] was ≤ 4.45 and the pIC50 [6] was 4.62. For the same compound, the CC50 at 120 h [3] was > 338 µM and the pEC50 [4] was < 3.47.
With `N#Cc1ccc(Nc2nccc(OCC(=O)Nc3ccc(C#N)cc3F)n2)cc1` the pEC50 [1] was < 3.49, the pEC50 [2] was < 3.49 and the CC50 at 120 h [3] was > 322 µM. The pEC50 [4] was < 3.49.
In the case of `COc1ccc(NC(=O)COc2ccnc(Nc3ccc(C#N)cc3)n2)cc1`, the pEC50 [1] was < 3.48, the pEC50 [2] was 4.31 and the selectivity ratio [5] was > 7. For the same compound, the pIC50 [6] was 4.61, the CC50 at 120 h [3] was > 333 µM and the pEC50 [4] was < 3.48.
With `Cc1cc(OCC(=O)Nc2ccc(F)cc2)nc(Nc2ccc(C#N)cc2)n1` the pEC50 [1] was < 3.48, the pEC50 [2] was < 3.48 and the CC50 at 120 h [3] was > 331 µM. For the same compound, the pEC50 [4] was < 3.48.
In the case of `Cc1cc(OCC(=O)Nc2ccc(Cl)cc2)nc(Nc2ccc(C#N)cc2)n1`, the pEC50 [1] was 5.58, the pEC50 [2] was < 5.58 and the selectivity ratio [5] was < 1. For the same compound, the CC50 at 120 h [3] was 2.63 µM and the pEC50 [4] was 5.58.
For `Cc1cc(OCC(=O)Nc2ccc(Br)cc2)nc(Nc2ccc(C#N)cc2)n1`, the pEC50 [1] was 6.03, the pEC50 [2] was < 6.03 and the selectivity ratio [5] was < 1. The CC50 at 120 h [3] was 0.93 µM.
For `Cc1cc(OCC(=O)Nc2cccc(Cl)c2)nc(Nc2ccc(C#N)cc2)n1`, the pEC50 [1] was < 4.49, the pEC50 [2] was 6.77 and the selectivity ratio [5] was 197. For the same compound, the pIC50 [6] was 6.27, the CC50 at 120 h [3] was 32.1 µM and the pEC50 [4] was < 4.49.
With `Cc1cc(OCC(=O)Nc2ccc([N+](=O)[O-])cc2)nc(Nc2ccc(C#N)cc2)n1` the pEC50 [1] was < 3.51, the pEC50 [2] was < 3.51 and the CC50 at 120 h [3] was > 309 µM.
In the case of `Cc1cc(OCC(=O)Nc2ccc(C#N)cc2)nc(Nc2ccc(C#N)cc2)n1`, the pEC50 [1] was < 3.49, the pEC50 [2] was < 3.49 and the CC50 at 120 h [3] was > 325 µM.
For `Cc1cc(OCC(=O)Nc2ccc(C#N)cc2F)nc(Nc2ccc(C#N)cc2)n1`, the pEC50 [1] was < 3.51, the pEC50 [2] was < 3.51 and the CC50 at 120 h [3] was > 311 µM.
For `Cc1cnc(Nc2ccc(C#N)cc2)nc1OCC(=O)Nc1ccc(F)cc1`, the pEC50 [1] was < 3.48, the pEC50 [2] was ≤ 4.46 and the pIC50 [6] was 4.72. The CC50 at 120 h [3] was > 331 µM and the pEC50 [4] was < 3.48.
With `Cc1cnc(Nc2ccc(C#N)cc2)nc1OCC(=O)Nc1ccccc1F` the pEC50 [1] was < 3.48, the pEC50 [2] was 7.89 and the selectivity ratio [5] was > 25200. For the same compound, the pIC50 [6] was 7.08, the CC50 at 120 h [3] was > 331 µM and the pEC50 [4] was < 3.48.
For `Cc1cnc(Nc2ccc(C#N)cc2)nc1OCC(=O)Nc1ccc(Cl)cc1`, the pEC50 [1] was < 3.50, the pEC50 [2] was < 3.50 and the CC50 at 120 h [3] was > 317 µM. For the same compound, the pEC50 [4] was < 3.50.
For `Cc1cnc(Nc2ccc(C#N)cc2)nc1OCC(=O)Nc1cccc(Cl)c1`, the pEC50 [1] was < 3.84, the pEC50 [2] was 7.30 and the selectivity ratio [5] was 2890. The pIC50 [6] was 6.80, the CC50 at 120 h [3] was 144 µM and the pEC50 [4] was < 3.84.
For `Cc1cnc(Nc2ccc(C#N)cc2)nc1OCC(=O)Nc1ccccc1Cl`, the pEC50 [1] was < 3.71, the pEC50 [2] was 7.77 and the selectivity ratio [5] was 11300. For the same compound, the pIC50 [6] was 7.34, the CC50 at 120 h [3] was 197 µM and the pEC50 [4] was < 3.71.
In the case of `Cc1cnc(Nc2ccc(C#N)cc2)nc1OCC(=O)Nc1ccc(Br)cc1`, the pEC50 [1] was < 4.46, the pEC50 [2] was < 4.46 and the selectivity ratio [5] was < 1. For the same compound, the CC50 at 120 h [3] was 34.7 µM and the pEC50 [4] was < 4.46.
For `Cc1cnc(Nc2ccc(C#N)cc2)nc1OCC(=O)Nc1ccc([N+](=O)[O-])cc1`, the pEC50 [1] was < 4.18, the pEC50 [2] was < 4.18 and the selectivity ratio [5] was < 1. For the same compound, the CC50 at 120 h [3] was 66.3 µM and the pEC50 [4] was < 4.18.
For `Cc1cnc(Nc2ccc(C#N)cc2)nc1OCC(=O)Nc1ccc(C#N)cc1`, the pEC50 [1] was < 4.32, the pEC50 [2] was 5.62 and the selectivity ratio [5] was ≥ 20. For the same compound, the pIC50 [6] was 4.75, the CC50 at 120 h [3] was ≥ 48.4 µM and the pEC50 [4] was < 4.32.
For `Cc1cnc(Nc2ccc(C#N)cc2)nc1OCC(=O)Nc1ccc(C#N)cc1F`, the pEC50 [1] was < 3.51, the pEC50 [2] was 5.52 and the selectivity ratio [5] was > 102. For the same compound, the pIC50 [6] was 4.92, the CC50 at 120 h [3] was > 311 µM and the pEC50 [4] was < 3.51.
With `CC(C)Nc1cccnc1N1CCN(C(=O)c2cc3cc(NS(C)(=O)=O)ccc3[nH]2)CC1` [DELAVIRDINE] the pEC50 [2] was 6.19, the selectivity ratio [5] was > 67 and the CC50 at 120 h [3] was > 43.8 µM. For the same compound, the pEC50 [4] was < 4.36.
In the case of `O=c1[nH]cnc2c1ncn2[C@H]1CC[C@@H](CO)O1` [DIDANOSINE], the selectivity ratio [5] was > 9 and the CC50 at 120 h [3] was > 212 µM.
For `O=C1Nc2ccc(Cl)cc2[C@@](C#CC2CC2)(C(F)(F)F)O1` [EFAVIRENZ], the pEC50 [2] was 8.21 and the CC50 at 120 h [3] was > 6.34 µM.
With `Cc1cc(C#N)cc(C)c1Oc1nc(Nc2ccc(C#N)cc2)nc(N)c1Br` [ETRAVIRINE] the pEC50 [1] was < 4.88, the pEC50 [2] was 8.77 and the selectivity ratio [5] was 7680. It also gave a CC50 at 120 h [3] of 13.3 µM and a pEC50 [4] of 7.89.
With `Nc1ccn([C@@H]2CS[C@H](CO)O2)c(=O)n1` [LAMIVUDINE] the selectivity ratio [5] was > 39 and the CC50 at 120 h [3] was > 87.2 µM.
In the case of `Cc1ccnc2c1NC(=O)c1cccnc1N2C1CC1` [NEVIRAPINE], the CC50 at 120 h [3] was > 15 µM and the pEC50 [4] was ≤ 5.12.
With `Cc1cn([C@H]2C[C@H](N=[N+]=[N-])[C@@H](CO)O2)c(=O)[nH]c1=O` [ZIDOVUDINE] the pEC50 [1] was 8.18, the CC50 at 120 h [3] was > 93.5 µM and the pEC50 [4] was 8.00.
